Source: patent US10829458B2 (Araxes Pharma LLC, priority 2015, dated 2020)

Target: T1, KRAS G12C 1-169, his-tagged protein, GDP-loaded (Homo sapiens, UniProt P01116, G12C)
T1 construct: KRAS G12C 1-169, his-tagged protein, GDP-loaded
Assay: Biochemical assay: covalent modification of KRAS G12C measured by mass spectrometry (RapidFire/TOF or Q-Exactive)
Details: covalent binding to KRAS G12C
Description: Test compounds were prepared as 10 mM stock solutions in DMSO (Fisher cat #BP-231-100). KRAS G12C 1-169, his-tagged protein, GDP-loaded was diluted to 2 μm in buffer (20 mM Hepes, 150 mM NaCl, 1 mM MgCl2). Compounds were tested for activity as follows:
Compounds were diluted to 50× final test concentration in DMSO in 96-well storage plates. Compound stock solutions were vortexed before use and observed carefully for any sign of precipitation. Dilutions were as follow: • For 100 μM final compound concentration, compounds were diluted to 5000 μM (5 μl 10 mM compound stock+5 μl DMSO and mixed well by pipetting. • For 30 μM final compound concentration, compounds were diluted to 1500 μM (3 μl 10 mM compound stock+17p DMSO) and mixed well by pipetting. • For 10 μM final compound concentration, compounds were diluted to 500 μM (2 μl 10 mM compound stock+38p DMSO) and mixed well by pipetting. 49p of the stock protein solution was added to each well of a 96-well PCR plate (Fisher cat #1423027). 1 μl of the diluted 50× compounds were added to appropriate wells in the PCR plate using 12-channel pipettor. Reactions were mixed carefully and thoroughly by pipetting up/down with a 200·1 multi-channel pipettor. The plate was sealed well with aluminum plate seal, and stored in drawer at room temperature for 30 min, 2 hour or 24 hrs. 5·1 of 2% formic acid (Fisher cat #A117) in DI H2O was then added to each well followed by mixing with a pipette. The plate was then resealed with aluminum seal and stored on dry ice until analyzed as described below.
The above described assays were analyzed by mass spectrometry according to one of the following two procedures:
The MS instrument is set to positive polarity, 2 GHz resolution, and low mass (1700) mode and allowed to equilibrate for 30 minutes. The instrument is then calibrated, switched to acquisition mode and the appropriate method loaded.
After another 30 minute equilibration time, a blank batch (i.e., buffer) is run to ensure equipment is operating properly. The samples are thawed at 37° C. for 10 minutes, briefly centrifuged, and transfer to the bench top. Wells A1 and H12 are spiked with 1 uL 500 uM internal standard peptide, and the plates centrifuged at 2000×g for 5 minutes. The method is then run and masses of each individual well recorded.
The masses (for which integration data is desired) for each well are pasted into the platemap and exported from the analysis. Masses for the internal standards are exported as well. The data at 50 ppm is extracted for the +19 charge state, and identity of well A1 is assigned using the internal standard spike and integrated. Peak data is exported as a TOF list and the above steps are repeated individually, for the +20, 21, 22, 23, 24, and 25 charge states.
The masses and peak intensities of KRAS G12C protein species were measured using a Dionex RSLCnano system (Thermo Scientific) connected to a Q Exactive Plus mass spectrometer (Thermo Scientific).
[…] of sample was each loaded onto a Aeris™ 3.6 μm WIDEPORE C4 200 Å, LC Column 50×2.1 mm column maintained at 40° C. at a flow rate of 600 μl min^−1 with […] (0.1% formic acid in acetonitrile). The liquid chromatography conditions were 20% solvent B for 1 min, 20% to 60% solvent B for 1.5 min, 60% to 90% solvent for 0.5 min, 90% solvent B for 0.2 min, 90% to 20% solvent B for 0.2 min, and then equilibrated for 1.6 min before the following sample injection. The flow rate was maintained at 600 μl min^−1 throughout the sample analysis.
The mass spectrometer was operated in profile mode at a resolution of 17500, 5 microscans, using 50 msec max injection time and an AGC target of 1e6, and a full mass range from 800-1850 m/z was recorded. The HCD trapping gas was optimized for maximum sensitivity for intact proteins. […]

SMILES | Binding % (compounds of structure (III)) | Binding % (compounds of structure (I))
C=CC(=O)N1C[C@@H](C)N(c2ncnc3c(F)c(-c4c(C)ccc5[nH]ncc45)c(Cl)cc23)[C@@H](C)C1 [III-40, 1-((3S,5R)-4-(6-chloro-8-fluoro-7-(5-methyl-1H-indazol-4-yl)quinazolin-4-yl)-3,5-dimethyl-piperazin-1-yl)prop-2-en-1-one] | ++ (++ indicates activity from 50% to 90%) | –
C=CC(=O)N1CCN(c2nc(NC3CCOCC3)nc3c(F)c(-c4cc(O)cc5ccccc45)c(Cl)cc23)CC1 [Example I-69, 1-(4-(6-chloro-8-fluoro-7-(3-hydroxy-naphthalen-1-yl)-2-(tetrahydro-2H-pyran-4-ylamino)quinazolin-4-yl)piperazin-1-yl)prop-2-en-1-one] | – | +++ (+++ indicates binding activity greater than 90%)
C=CC(=O)N1C[C@H](C)N(c2ncnc3c(F)c(-c4c(F)cccc4OC)c(Cl)cc23)C[C@H]1C [III-2, 1-((2R,5S)-4-(6-chloro-8-fluoro-7-(2-fluoro-6-methoxy-phenyl)quinazolin-4-yl)-2,5-dimethyl-piperazin-1-yl)prop-2-en-1-one] | + (+ indicates binding activity up to 50%) | –
C=CC(=O)N1CCN(c2ncnc3c(F)c(-c4c(O)cccc4F)c(Cl)cc23)CC1CO (stereo not shown) [III-8, 1-(4-(6-chloro-8-fluoro-7-(2-fluoro-6-hydroxy-phenyl)quinazolin-4-yl)-2-(hydroxy-methyl)piperazin-1-yl)prop-2-en-1-one] | ++ (++ indicates activity from 50% to 90%) | –
C=CC(=O)N1CCN(c2nc(SCCN3CCOCC3)nc3c(F)c(-c4c(O)cccc4F)c(Cl)cc23)CC1 [Example I-17, 1-(4-(6-chloro-8-fluoro-7-(2-fluoro-6-hydroxyphenyl)-2-(2-morpholino-ethylthio)quinazolin-4-yl)piperazin-1-yl)prop-2-en-1-one] | – | ++ (++ indicates binding activity from 50 to 90%)
C=CC(=O)N1CCN(c2nc(OC3CN(C4CCOCC4)C3)nc3c(F)c(-c4c(O)cccc4F)c(Cl)cc23)CC1 [Example I-186, 1-(4-(6-chloro-8-fluoro-7-(2-fluoro-6-hydroxyphenyl)-2-((1-(tetrahydro-2H-pyran-4-yl)azetidin-3-yl)oxy)quinazolin-4-yl)piperazin-1-yl) prop-2-en-1-one] | – | ++ (++ indicates binding activity from 50 to 90%)
C=CC(=O)N1CCN(c2nc(OCCN3CC(F)(F)C3)nc3c(F)c(-c4cc(O)cc5ccccc45)c(Cl)cc23)CC1 [Example I-107, 1-(4-(6-chloro-2-(2-(3,3-difluoro-azetidin-1-yl)ethoxy)-8-fluoro-7-(3-hydroxy-naphthalen-1-yl)quinazolin-4-yl)piperazin-1-yl) prop-2-en-1-one] | – | +++ (+++ indicates binding activity greater than 90%)
C=CC(=O)N1CCN(c2nc(NC3CCN(C4CC4)CC3)nc3c(F)c(-c4c(C)cccc4O)c(Cl)cc23)CC1 [Example I-80, 1-(4-(6-chloro-2-(1-cyclopropyl-piperidin-4-ylamino)-8-fluoro-7-(2-hydroxy-6-methylphenyl)quinazolin-4-yl)piperazin-1-yl) prop-2-en-1-one] | – | +++ (+++ indicates binding activity greater than 90%)
C=CC(=O)N1CCN(c2nc(OCCCN3CCC(F)(F)C3)nc3c(F)c(-c4c(O)cccc4F)c(Cl)cc23)CC1 [Example I-62, 1-(4-(6-chloro-2-(3-(3,3-difluoro-pyrrolidin-1-yl)propoxy)-8-fluoro-7-(2-fluoro-6-hydroxyphenyl)quinazolin-4-yl)piperazin-1-yl) prop-2-en-1-one] | – | +++ (+++ indicates binding activity greater than 90%)
C=CC(=O)N1CCN(c2nc(NCCO)nc3c(F)c(-c4c(C)ccc5[nH]ncc45)c(Cl)cc23)CC1 [Example I-5, 1-(4-(6-chloro-8-fluoro-2-(2-hydroxyethyl-amino)-7-(5-methyl-1H-indazol-4-yl)quinazolin-4-yl)piperazin-1-yl)prop-2-en-1-one] | – | + (+ indicates binding activity up to 50%)
